Earlier results as cited in patent publication US20250049666A1, “LIQUID COMPOSITION HAVING ENHANCED ANTIMICROBIAL ACTIVITY” (Conopco Inc., d/b/a UNILEVER, priority 2021, published 2025).

Molecule	pKa	log P (octanol/water)
CCCCCCCC(=O)O [Caprylic acid]	4.72	–
Capryloyl salicylic acid	acid (pKa = 3.83, log	P = 4.83)
